Marks after values point to notes of the source that are not given here.
How the values were obtained:
mice with testis removed = assay: Sexual function (back climbing) of testis-removed mice (Example 10); assay type: in vivo, KM mice; conditions: for Incidence: back climbing within 2 hours after administration; for Times of back climbing / Number of the animals who performed back climbing: within 2 hours after administration; for Number of the animals who performed back climbing: 10 male mice
Excerpt: Methods: Forty healthy KM male mice with the body weight ranging from 28-32 g and forty healthy KM female mice with body weight ranging from 24-28 g were used. Each male mouse was anesthetized with sodium pentobarbital, and the testes were squeezed into the scrotum. After sterilization, the scrotum was dissected with an operating knife. The testes and epididymis were respectively taken out, and then ligated. The wound were sutured and each of the mice was administrated with 100,000 units of penicillin for three consecutive days. After being bred for one week, the mice were used for the tests. The animals may be employed repeatedly and the interval between any two tests was 72 hours. To the mice, the following compounds were orally administered: compound (1), compound (2), compound (3), and compound (4), each at the dose of 80 mg/kg and 40 mg/kg, respectively. The positive control agent was Sildenafil, at the dose of 80 mg/kg. The control group was given with 1% of sodium carboxymethyl cellulose. At 30 min after the administration, the male mice who had taken the above agents were put into the cages of female mice, with the male-to-female rate of 1:1. There were three males and three females in each cage. The times of back climbing on the female mice performed by the male mice, and the percentage of occurrence were observed within 2 hours after the administration.

[1] = Preliminary acute toxicity, Bliss method (Example 13); conditions: rat, in vivo, oral and intragastric administration, rats
Experimental: Experimental methods: the toxicity test was conducted by oral and intragastric administration of the pyrazolopyrimidinethione derivatives of the invention using the Bliss method.

anesthetized rats = assay: Blood pressure and heart rate of anesthetized rats (Example 12); assay type: in vivo, wistar rats
Experimental: Forty male wistar rats with the body weight ranging from 220-240 g were used in the study. Pharmaceuticals: compound (2) and Sildenafil, which were ground and then suspended with 1% of sodium carboxymethyl cellulose. Apparatus: RM-6000 eight-graph system (NIHON KOHDEN, Japan). The doses for administration and the division of the groups: solvent control group (abbreviated as the control group), 20 mg/kg of compound (2), 40 mg/kg of compound (2), 80 mg/kg of compound (2), and 50 mg/kg of Sildenafil. The administration route is through dodecadactylon. Methods: the male wistar rats were taken out and anesthetized with 35 mg/kg of sodium pentobarbital by injecting into the abdominal cavity, on the basis of their body weight. The rats were fixed on the operation table and were performed with the dissection operation of right carotid artery. The catheter with an external diameter of 1 mm was inserted into the right carotid artery. The blood pressure was measured and the electrodes positioned on the skin of the four limbs were used to record the electrocardiogram limb lead II. The catheter with an external diameter of 2 mm was inserted into the dodecadactylon via incision of the epigastric region, for the administration of the pharmaceuticals. RM-6000 eight-graph system (NIHON KOHDEN, Japan) was employed to record. Observation time: the value before administration, the values at 15, 30, 60, 120 and 180 min after the administration.

rats with testis removed [2] = assay: Penile erection caused by stimulating electric current in rats with testes removed (Example 7); assay type: in vivo, wistar rats; conditions: for Latent period / Swelling time: stimulation 35 min after administration
Excerpt: Methods: Forty healthy adult male wistar rats were used in the study, with the body weight ranging from 230 g to 250 g. The rats were anesthetized with sodium pentobarbital, and their testes were squeezed into the scrotum. After sterilization, the scrotum was dissected with an operation knife. The testes and epididymis were taken out respectively and then ligated. The wound were sutured and 100,000 unit of penicillin was administrated to each rat for three consecutive days. After breeding for one week, the rats were used for the tests. The animals may be used repeatedly and the interval between any two of the tests was one week. […] Sildenafil at the dose of 50 mg/kg was used as the positive control. The control group is (1% sodium carboxymethyl cellulose). In 35 min after the administration, the penis of the rats was stimulated with SEN-3201 stimulator (NIHON KOHDEN, Japan), with the following parameters: the stimulating voltage of 10V, the time interval (T1) of 250 msec, the deferment time (T2) of 10 msec, the duration (T3) of 500 μsec, and the stimulation rank (n) of 25. At the same time, the latent period (sec) of the penile erection and the penile swelling time (min) were recorded with a three-channel stop-watch.

rats with testis removed [3] = assay: Duration of penile erection in rats with testis removed (Example 8); assay type: in vivo, wistar rats
[4] = 20 mg/kg through dodecadactylon, at 15 min after administration
[5] = 20 mg/kg through dodecadactylon, at 30 min after administration
[6] = 20 mg/kg through dodecadactylon, at 60 min after administration
[7] = 20 mg/kg through dodecadactylon, at 120 min after administration
[8] = 20 mg/kg through dodecadactylon, value before administration
[9] = 40 mg/kg through dodecadactylon, at 15 min after administration
[10] = 40 mg/kg through dodecadactylon, at 30 min after administration
[11] = 40 mg/kg through dodecadactylon, at 60 min after administration
[12] = 40 mg/kg through dodecadactylon, at 120 min after administration
[13] = 40 mg/kg through dodecadactylon, value before administration
[14] = 80 mg/kg through dodecadactylon, at 15 min after administration
[15] = 80 mg/kg through dodecadactylon, at 30 min after administration
[16] = 80 mg/kg through dodecadactylon, at 60 min after administration
[17] = 80 mg/kg through dodecadactylon, at 120 min after administration
[18] = 80 mg/kg through dodecadactylon, value before administration
[19] = 20, 40 and 80 mg/kg through dodecadactylon

SMILES: CCCc1nn(C)c2c(=S)[nH]c(-c3cc(S(=O)(=O)N4C[C@@H](C)N[C@@H](C)C4)ccc3OCC)nc12 [Compound (2), 5-[2-ethoxy-5-(cis-3,5-dimethylpiperazin-1-sulfonyl)phenyl]-1-methyl-3-n-propyl-1,6-dihydro-7H-pyrazolo[4,3-d]pyrimidin-7-thione]
- Incidence (mice with testis removed; oral 40 mg/kg): 60%
- Times of back climbing (mice with testis removed; oral 40 mg/kg, 40 mg/kg): 11*
- Number of the animals who performed back climbing (mice with testis removed; oral 40 mg/kg): 6*
- Times of back climbing (mice with testis removed; oral 40 mg/kg, listed as compound (2), 40 mg/kg): 11
- Incidence (mice with testis removed; oral 80 mg/kg): 80%
- Times of back climbing (mice with testis removed; oral 80 mg/kg, 80 mg/kg): 20**
- Number of the animals who performed back climbing (mice with testis removed; oral 80 mg/kg): 8**
- Times of back climbing (mice with testis removed; oral 80 mg/kg, listed as compound (2), 80 mg/kg): 20
- LD50 [1]: > 3000 mg/kg
- Heart rate (anesthetized rats; [4]): 440 ± 29.7 times/min
- Systolic pressure (anesthetized rats; [4]): 132 ± 29.5 mmHg
- diastolic pressure (anesthetized rats; [4]): 108 ± 29.7 mmHg
- Heart rate (anesthetized rats; [5]): 440 ± 29.6 times/min
- Systolic pressure (anesthetized rats; [5]): 134 ± 29.6 mmHg
- diastolic pressure (anesthetized rats; [5]): 104 ± 29.6 mmHg
- Heart rate (anesthetized rats; [6]): 436 ± 22.9 times/min
- Systolic pressure (anesthetized rats; [6]): 128 ± 22.9 mmHg
- diastolic pressure (anesthetized rats; [6]): 101 ± 22.9 mmHg
- Heart rate (anesthetized rats; [7]): 428 ± 22.6 times/min
- Systolic pressure (anesthetized rats; [7]): 127 ± 22.6 mmHg
- diastolic pressure (anesthetized rats; [7]): 102 ± 22.6 mmHg
- Heart rate (anesthetized rats; 20 mg/kg through dodecadactylon, before administration): 445 ± 25.1 times/min
- Systolic pressure (anesthetized rats; [8]): 134 ± 7.2 mmHg
- diastolic pressure (anesthetized rats; [8]): 109 ± 14.1 mmHg
- Heart rate (anesthetized rats; [9]): 422 ± 29.7 times/min
- Systolic pressure (anesthetized rats; [9]): 130 ± 29.7 mmHg
- diastolic pressure (anesthetized rats; [9]): 109 ± 29.7 mmHg
- Heart rate (anesthetized rats; [10]): 427 ± 29.6 times/min
- Systolic pressure (anesthetized rats; [10]): 134 ± 29.6 mmHg
- diastolic pressure (anesthetized rats; [10]): 109 ± 29.6 mmHg
- Heart rate (anesthetized rats; [11]): 425 ± 22.9 times/min
- Systolic pressure (anesthetized rats; [11]): 122 ± 22.9 mmHg
- diastolic pressure (anesthetized rats; [11]): 109 ± 22.9 mmHg
- Heart rate (anesthetized rats; [12]): 424 ± 22.6 times/min
- Systolic pressure (anesthetized rats; [12]): 133 ± 22.6 mmHg
- diastolic pressure (anesthetized rats; [12]): 112 ± 22.6 mmHg
- Heart rate (anesthetized rats; 40 mg/kg through dodecadactylon, before administration): 429 ± 42.8 times/min
- Systolic pressure (anesthetized rats; [13]): 129 ± 13.6 mmHg
- diastolic pressure (anesthetized rats; [13]): 109 ± 14.4 mmHg
- Heart rate (anesthetized rats; [14]): 439 ± 29.7 times/min
- Systolic pressure (anesthetized rats; [14]): 121 ± 29.7 mmHg
- diastolic pressure (anesthetized rats; [14]): 102 ± 29.7 mmHg
- Heart rate (anesthetized rats; [15]): 442 ± 29.6 times/min
- Systolic pressure (anesthetized rats; [15]): 123 ± 29.6 mmHg
- diastolic pressure (anesthetized rats; [15]): 97 ± 29.6 mmHg
- Heart rate (anesthetized rats; [16]): 436 ± 22.8 times/min
- Systolic pressure (anesthetized rats; [16]): 121 ± 22.9 mmHg
- diastolic pressure (anesthetized rats; [16]): 96 ± 22.9 mmHg
- Heart rate (anesthetized rats; [17]): 438 ± 22.6 times/min
- Systolic pressure (anesthetized rats; [17]): 119 ± 22.6 mmHg
- diastolic pressure (anesthetized rats; [17]): 94 ± 22.6 mmHg
- Heart rate (anesthetized rats; 80 mg/kg through dodecadactylon, before administration): 439 ± 22.6 times/min
- Systolic pressure (anesthetized rats; [18]): 126 ± 12.1 mmHg
- diastolic pressure (anesthetized rats; [18]): 102 ± 12.0 mmHg
- effect on the heart rate (in words) (anesthetized rats; [19]): did not exhibit an evident effect
- effect on the systolic pressure and diastolic pressure (in words) (anesthetized rats; [19]): did not exhibit an evident effect
- penile swelling time (in words) (rats with testis removed [2]; compared with control): lengthened
- latent period of the penile erection (in words) (rats with testis removed [2]; compared with control, P<0.001): evidently shortened
- penile swelling time compared with positive control sildenafil (in words) (rats with testis removed [2]; compared with sildenafil 50 mg/kg): more evident
- Latent period (rats with testis removed [2]; oral 10 mg/kg): 29.5 ± 4.2 s
- Swelling time (rats with testis removed [2]; oral 10 mg/kg): 1069.8 ± 621.5 s
- Latent period (rats with testis removed [2]; oral 20 mg/kg): 29.5 ± 4.2 s
- Swelling time (rats with testis removed [2]; oral 20 mg/kg): 1480.5 ± 469.7 s
- Latent period (rats with testis removed [2]; oral 40 mg/kg): 30.1 ± 3.9 s
- Swelling time (rats with testis removed [2]; oral 40 mg/kg): 2675.5 ± 769.2 s
- Penile swelling time (rats with testis removed [3]; oral 10 mg/kg, at 1 h after administration): 679.6 ± 13.2 s
- Penile swelling time (rats with testis removed [3]; oral 10 mg/kg, at 3 h after administration): 544.7 ± 166.9 s
- Penile swelling time (rats with testis removed [3]; oral 10 mg/kg, at 6 h after administration): 268.7 ± 146.2 s
- Penile swelling time (rats with testis removed [3]; oral 10 mg/kg, at 24 h after administration): 98.6 ± 57.9 s
- Penile swelling time (rats with testis removed [3]; oral 10 mg/kg, value before administration): 67.7 ± 12.3 s
- Penile swelling time (rats with testis removed [3]; oral 20 mg/kg, at 1 h after administration): 1514.8 ± 258.9 s
- Penile swelling time (rats with testis removed [3]; oral 20 mg/kg, at 3 h after administration): 906.0 ± 406.7 s
- Penile swelling time (rats with testis removed [3]; oral 20 mg/kg, at 6 h after administration): 275.8 ± 154.2 s
- Penile swelling time (rats with testis removed [3]; oral 20 mg/kg, at 24 h after administration): 201.0 ± 85.7 s
- Penile swelling time (rats with testis removed [3]; oral 20 mg/kg, value before administration): 82.4 ± 26.6 s
- how long the penile swelling effect lasts after administration (rats with testis removed [3]; oral 40 mg/kg and 20 mg/kg): up to 24 hours
- Penile swelling time (rats with testis removed [3]; oral 40 mg/kg, at 1 h after administration): 2187.1 ± 547.8 s
- Penile swelling time (rats with testis removed [3]; oral 40 mg/kg, at 3 h after administration): 783.0 ± 329.2 s
- Penile swelling time (rats with testis removed [3]; oral 40 mg/kg, at 6 h after administration): 678.7 ± 221.8 s
- Penile swelling time (rats with testis removed [3]; oral 40 mg/kg, at 24 h after administration): 194.0 ± 65.1 s
- Penile swelling time (rats with testis removed [3]; oral 40 mg/kg, value before administration): 84.0 ± 18.4 s
